Laboratory results as given in patent US20110319392A1, “Thiazole Sulfonamide And Oxazole Sulfonamide Kinase Inhibitors” (priority 2009, published 2011).
Structures can show the parent of a compound that is named as a salt.

Assays:
HT-29 tumor cells = experiment: Cell growth inhibition assay (CellTiter-Glo), HT-29; type: cell-based, Human; conditions: Homo sapiens
Procedure: (§1) Human breast tumor cells (BT474) were cultured in RPMI (Mediatech […]), containing 10% FBS (JRH Biosciences 12176) and 1% penicillin-streptomycin (Invitrogen 15140). Human head and neck tumor cells (HN5) were cultured in high glucose DMEM (Mediatech 50-013-PB) containing 10% FBS and 1% penicillin-streptomycin. Human colon tumor cells (Colo205) were cultured in RPMI (Mediatech 50-020-PB) containing 10% FBS and 1% penicillin-streptomycin. Human melanoma cancer cells (SK-MEL-28) were cultured in EMEM with nonessential amino acids (Mediatech 50-011-PB) containing 10% FBS, 1% sodium pyruvate (JT Baker 3354-04), and 1% penicillin-streptomycin. Human melanoma cancer cells (A375P F11s) were cultured in RPMI (Mediatech 50-020-PB) containing 10% FBS, 1% sodium pyruvate, and 1% penicillin-streptomycin. Human colon cancer cells (HT-29) were cultured in high glucose DMEM (Mediatech 50-013-PB) containing 10% FBS and 1% penicillin-streptomycin. Human melanoma cancer cells (SK-MEL-3) were cultured in McCoy's 5A (50-025-PB) containing 15% FBS, and 1% penicillin-streptomycin. All cell lines were maintained at 37° C. in a humidified 5% CO2, 95% air incubator. Cells were harvested using trypsin/EDTA (Invitrogen 25200), counted using a haemocytometer, and plated. For 96-well assays (using white full-area NUNC plates cat. #136102), cells were plated in 105 μL at the following densities (cells/well): HNS, 500; Colo 205, 500; SK-MEL-28, 500; A375P F11s, 500; HT-29, 500; SK-MEL-3, 500; and BT474, 3000. For 384-well assays (white full-area NUNC plates, cat. #781080), cells were plated in 48 μL at the following densities (cells/well): HNS, 500; Colo205, 500; SK-MEL-28, 500; A375P F11s, 500; HT-29, 500; SK-MEL-3, 500; and BT474, 2000.
(§2) The next day, compounds were diluted as follow: For 96-well assays, 13.5 μL of compound in DMSO were diluted using nine (9) serial 1:3 dilutions of 4.5 μL in 9 of DMSO. Medium (270 μL/well of RPMI with 10% FBS and 1% penicillin-streptomycin) was added to the plates. Aliquots (7 μL) were added to cells in the final assay giving a final DMSO concentration of 0.2%. For 384-well assays, 15 μL of compound in DMSO were diluted using nine (9) serial 1:3 dilutions of 5 μL in 10 μL of DMSO, followed by a further dilution of 5 μL of compound with 95 μL of medium, of which 2 μL were added to cells in the final assay giving a final DMSO concentration of 0.2%. Cells were incubated at 37° C., 5% CO2 for 3 days.
(§3) Total ATP was measured (as a surrogate estimate of cell number) using CellTiter-Glo® reagent (Promega G7571). Briefly, plates were removed from the incubator and allowed to equilibrate to room temperature for 30 minutes. CellTiter-Glo® (25 μL or 55 μL for 384-well or 96-well assays, respectively) reagent was added to each well and plates were shaken on an orbital plate shaker for 2 minutes. Plates were incubated without shaking for a further 30 minutes and read on an LJL Analyst GT reader in luminometer mode with an integration time of 0.5 seconds per well. Percent inhibition of cell growth was calculated relative to DMSO vehicle-treated control wells. Concentration of compound required to give 50% inhibition of vehicle-treated control cell growth (IC50) was interpolated using a 4-parameter fit for determining IC50 using the following equation: Y=A +((B−A)/(1+((C/X)̂D))) where […].

SK-MEL-3 tumor cells = experiment: Cell growth inhibition assay (CellTiter-Glo), SK-MEL-3; type: cell-based, Human; conditions: for IC50: Homo sapiens, SK-MEL3
Procedure: as §1, §2, §3

ErbB2 = target: T1, ErbB2 (Homo sapiens, UniProt P04626); experiment: ErbB-2 substrate phosphorylation assay (HTRF); type: biochemical
T1 construct: made in house; host or cells: baculovirus expression system
T1 sequence (P04626 23-1255): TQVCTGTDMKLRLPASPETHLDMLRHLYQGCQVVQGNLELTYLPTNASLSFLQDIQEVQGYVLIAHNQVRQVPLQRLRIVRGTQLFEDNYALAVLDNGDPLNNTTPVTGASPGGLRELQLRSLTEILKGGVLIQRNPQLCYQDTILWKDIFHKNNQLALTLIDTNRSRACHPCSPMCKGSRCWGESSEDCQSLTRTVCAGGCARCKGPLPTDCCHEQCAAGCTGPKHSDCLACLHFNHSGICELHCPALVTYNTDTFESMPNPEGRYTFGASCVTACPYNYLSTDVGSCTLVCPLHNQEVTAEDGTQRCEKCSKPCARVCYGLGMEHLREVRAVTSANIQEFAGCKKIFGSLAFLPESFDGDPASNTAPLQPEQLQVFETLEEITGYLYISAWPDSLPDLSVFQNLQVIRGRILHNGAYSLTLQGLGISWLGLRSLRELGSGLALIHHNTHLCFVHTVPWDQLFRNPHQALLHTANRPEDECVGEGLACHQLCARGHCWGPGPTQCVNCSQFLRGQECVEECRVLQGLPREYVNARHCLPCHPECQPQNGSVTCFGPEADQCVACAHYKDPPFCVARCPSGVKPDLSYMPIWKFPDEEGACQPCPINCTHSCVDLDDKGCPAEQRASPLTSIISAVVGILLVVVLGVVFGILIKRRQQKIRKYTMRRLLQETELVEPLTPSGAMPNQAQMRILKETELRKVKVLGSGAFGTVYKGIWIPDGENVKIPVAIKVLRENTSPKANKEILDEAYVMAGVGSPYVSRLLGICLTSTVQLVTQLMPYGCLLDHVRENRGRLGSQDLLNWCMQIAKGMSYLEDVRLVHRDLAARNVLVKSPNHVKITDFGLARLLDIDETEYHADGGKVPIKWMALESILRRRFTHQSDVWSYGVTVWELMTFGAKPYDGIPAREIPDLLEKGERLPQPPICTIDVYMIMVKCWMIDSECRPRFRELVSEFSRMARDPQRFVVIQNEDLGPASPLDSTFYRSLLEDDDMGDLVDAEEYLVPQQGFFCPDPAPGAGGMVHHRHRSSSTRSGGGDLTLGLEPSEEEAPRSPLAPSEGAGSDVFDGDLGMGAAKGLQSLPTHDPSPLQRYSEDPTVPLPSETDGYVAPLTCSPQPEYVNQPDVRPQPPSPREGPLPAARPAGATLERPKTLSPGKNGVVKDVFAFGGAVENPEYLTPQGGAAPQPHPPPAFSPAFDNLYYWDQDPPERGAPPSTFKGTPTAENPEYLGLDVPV
How it was run: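 Baculovirus-expressed EGFR (0.8 nM) or ErbB2 (10 nM) in enzyme mix, preincubated 1 h at 20 °C with compound (0.00027–47.6 μM final), then 90 min at 20 °C with substrate mix of 20 μM ATP, 0.8 uM biotinylated Peptide C, MnCl2, MOPS pH 7.5. Phosphotyrosine by HTRF; pIC50 reported.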

BT474 tumor cells = experiment: Cell growth inhibition assay (CellTiter-Glo), BT474; type: cell-based, Human; conditions: Homo sapiens, BT-474, 72 h, 3 days incubation
Procedure: as §1, §2, §3

SMILES | IC50 (HT-29 tumor cells) [nM] | IC50 (SK-MEL-3 tumor cells) [nM] | IC50 (ErbB2) [nM] | IC50 (BT474 tumor cells) [nM] | Activity in SK-MEL-3 Tumor Cells (SK-MEL-3 tumor cells)
CC(C)c1nc(-c2cccc(NS(=O)(=O)c3c(F)cccc3F)c2)c(-c2ccnc(Nc3ccc(OC4CCN(CCS(C)(=O)=O)CC4)c(F)c3)n2)s1 [Example 13, 2,6-Difluoro-N-{3-[5-(2-{[3-fluoro-4-({1-[2-(methylsulfonyl)ethyl]-4-piperidinyl}oxy)phenyl]amino}-4-pyrimidinyl)-2-(1-methylethyl)-1,3-thiazol-4-yl]phenyl}benzenesulfonamide hydrochloride] | 100 to 1000 | < 100 | > 1000 | > 1000 | 
O=S(=O)(Nc1cc(-c2nc(N3CCCC3)oc2-c2ccnc(Nc3ccc(N4CCN(CCF)CC4)c(F)c3)n2)ccc1F)c1c(F)cccc1F [Example 114] | > 1000 |  | 100 to 1000 | > 1000 | + (activity of >1 μM in SK-MEL-3 tumor cells)
CC(C)c1nc(-c2cccc(NS(=O)(=O)c3c(F)cccc3F)c2F)c(-c2ccnc(Nc3ccc(N4CCN(CCF)CC4)c(F)c3)n2)s1 [Example 29, 2,6-Difluoro-N-{2-fluoro-3-[5-[2-({3-fluoro-4-[4-(2-fluoroethyl)-1-piperazinyl]phenyl}amino)-4-pyrimidinyl]-2-(1-methylethyl)-1,3-thiazol-4-yl]phenyl}benzenesulfonamide] | 100 to 1000 | < 100 | 100 to 1000 | > 1000 | 
COc1cc(N2CCN(CCS(C)(=O)=O)CC2)c(C)cc1Nc1nccc(-c2sc(N3CCOCC3)nc2-c2cccc(NS(=O)(=O)c3c(F)cccc3F)c2)n1 [Example 128] | < 100 | < 100 | < 100 | 100 to 1000 | 
COc1ccc(Nc2nccc(-c3sc(C(C)C)nc3-c3cccc(NS(=O)(=O)c4ccccc4)c3)n2)cc1N1CCN(CCC#N)CC1 [Example 9, N-{3-[5-(2-{[3-[4-(2-Cyanoethyl)-1-piperazinyl]-4-(methyloxy)phenyl]amino}-4-pyrimidinyl)-2-(1-methylethyl)-1,3-thiazol-4-yl]phenyl}benzenesulfonamide] | 100 to 1000 | < 100 | < 100 | > 1000 | 
CC(C)c1nc(-c2ccc(F)c(NS(=O)(=O)c3c(F)cccc3F)c2)c(-c2ccnc(Nc3ccc(N4CCN(CCF)CC4)c(F)c3)n2)s1 [Example 25] | 100 to 1000 | 100 to 1000 | < 100 | > 1000 | 
O=S1(=O)Cc2ccc(Nc3nccc(-c4sc(N5CCOCC5)nc4-c4cccc(NS(=O)(=O)c5c(F)cccc5F)c4F)n3)cc2C1 [Example 155] | < 100 | < 100 | 100 to 1000 | > 1000 | 
CC(=O)N1CCN(c2ccc(Nc3nccc(-c4sc(C(C)C)nc4-c4cccc(NS(=O)(=O)C5CCCCC5)c4)n3)cn2)CC1 [Example 39] | > 1000 | 100 to 1000 | > 1000 | > 1000 | 
CC(C)(C)c1nc(-c2ccc(F)c(NS(=O)(=O)c3c(F)cccc3F)c2)c(-c2ccnc(Nc3ccc(N4CCN(CCF)CC4)c(F)c3)n2)s1 [Example 99] | > 1000 | 100 to 1000 | < 100 | > 1000 | 
CS(=O)(=O)CCN1CCN(c2ccc(Nc3nccc(-c4oc(N5CCCC5)nc4-c4ccc(F)c(NS(=O)(=O)c5c(F)cccc5F)c4)n3)cc2F)CC1 [Example 119] | 100 to 1000 |  | 100 to 1000 | > 1000 | 

The next lines start with results.

IC50 (HT-29 tumor cells) [nM] | IC50 (SK-MEL-3 tumor cells) [nM] | IC50 (ErbB2) [nM] | IC50 (BT474 tumor cells) [nM] | SMILES | Activity in SK-MEL-3 Tumor Cells (SK-MEL-3 tumor cells)
100 to 1000 | < 100 | 100 to 1000 | > 1000 | CC(C)(C)c1nc(-c2ccc(F)c(NS(=O)(=O)c3c(F)cccc3F)c2)c(-c2ccnc(Nc3ccc(N4CCOCC4)nc3)n2)s1 [Example 28, N-{5-[2-(1,1-Dimethylethyl)-5-(2-{[[6-(4-morpholinyl)-3-pyridinyl]amino}-4-pyrimidinyl)-1,3-thiazol-4-yl]-2-fluorophenyl]-2,6-difluorobenzenesulfonamide hydrochloride] | 
100 to 1000 | 100 to 1000 | > 1000 | > 1000 | CC(C)c1nc(-c2cccc(NS(=O)(=O)c3c(F)cccc3F)c2)c(-c2ccnc(Nc3ccc(N4CCOCC4)c(F)c3)n2)o1 [Example 57] | 
< 100 | < 100 | > 1000 | > 1000 | CC(C)c1nc(-c2cccc(NS(=O)(=O)c3ccco3)c2)c(-c2ccnc(Nc3ccc(N4CCOCC4)nc3)n2)s1 [Example 53] | 
< 100 | < 100 | 100 to 1000 | > 1000 | CC(C)c1nc(-c2cccc(NS(=O)(=O)c3cccnc3)c2)c(-c2ccnc(Nc3ccc(N4CCOCC4)nc3)n2)s1 [Example 52] | 
100 to 1000 | < 100 |  | > 1000 | CC(C)c1nc(-c2cncc(NS(=O)(=O)c3c(F)cccc3F)c2)c(-c2ccnc(Nc3ccc(N4CCOCC4)nc3)n2)s1 [Example 47] | 
< 100 | < 100 | > 1000 | > 1000 | CC(C)c1nc(-c2cccc(NS(=O)(=O)c3c(F)cccc3F)c2)c(-c2ccnc(Nc3ccc(N4CCOCC4)nc3)n2)s1 [Example 17, 2,6-Difluoro-N-{3-[2-(1-methylethyl)-5-(2-{[6-(4-morpholinyl)-3-pyridinyl]amino}-4-pyrimidinyl)-1,3-thiazol-4-yl]phenyl}benzenesulfonamide] | 
100 to 1000 | < 100 | > 1000 | > 1000 | CC(C)c1nc(-c2cccc(NS(=O)(=O)c3ccccc3)c2)c(-c2ccnc(Nc3ccc(N4CCOCC4)nc3)n2)s1 [Example 8, N-{3-[2-(1-Methylethyl)-5-(2-{[6-(4-morpholinyl)-3-pyridinyl]amino}-4-pyrimidinyl)-1,3-thiazol-4-yl]phenyl}benzenesulfonamide hydrochloride] | 
100 to 1000 | 100 to 1000 | 100 to 1000 | > 1000 | CN(C)c1nc(-c2ccc(F)c(NS(=O)(=O)c3c(F)cccc3F)c2)c(-c2ccnc(Nc3ccc(N4CCN(S(C)(=O)=O)CC4)nc3)n2)s1 [Example 112] | 
100 to 1000 | < 100 | > 1000 | > 1000 | Cc1nc(Cl)sc1S(=O)(=O)Nc1cccc(-c2nc(C(C)C)sc2-c2ccnc(Nc3ccc(N4CCOCC4)nc3)n2)c1 [Example 42] | 
100 to 1000 | < 100 | > 1000 | > 1000 | CC(C)c1nc(-c2cccc(NS(=O)(=O)c3c(F)cccc3F)c2F)c(-c2ccnc(Nc3cnc(N4CCOCC4)c(F)c3)n2)s1 [Example 30, 2,6-Difluoro-N-{2-fluoro-3-[5-(2-{[5-fluoro-6-(4-morpholinyl)-3-pyridinyl]amino}-4-pyrimidinyl)-2-(1-methylethyl)-1,3-thiazol-4-yl]phenyl}benzenesulfonamide] | 
> 1000 | < 100 | > 1000 | > 1000 | CC(C)c1nc(-c2ccnc(NS(=O)(=O)c3c(F)cccc3F)c2)c(-c2ccnc(Nc3ccc(N4CCOCC4)nc3)n2)s1 [Example 32, 2,6-Difluoro-N-{4-[2-(1-methylethyl)-5-(2-{[6-(4-morpholinyl}-3-pyridinyl]amino}-4-pyrimidinyl)-1,3-thiazol-4-yl]-2-pyridinyl}benzenesulfonamide] | 
